Experimental data reported in patent US8101760B2, “Glucocorticoid receptor modulator and methods of use” (Eli Lilly and Company, priority 2007, dated 2012).

How the values were obtained:
[1] = target: T1, human AR (androgen receptor) (Homo sapiens, UniProt P10275); assay: Nuclear hormone receptor binding assay, AR
T1 construct: expressed in transfected cells; host or cells: HEK293 (lysate, '293-AR lysate')
T1 sequence (P10275 1-920): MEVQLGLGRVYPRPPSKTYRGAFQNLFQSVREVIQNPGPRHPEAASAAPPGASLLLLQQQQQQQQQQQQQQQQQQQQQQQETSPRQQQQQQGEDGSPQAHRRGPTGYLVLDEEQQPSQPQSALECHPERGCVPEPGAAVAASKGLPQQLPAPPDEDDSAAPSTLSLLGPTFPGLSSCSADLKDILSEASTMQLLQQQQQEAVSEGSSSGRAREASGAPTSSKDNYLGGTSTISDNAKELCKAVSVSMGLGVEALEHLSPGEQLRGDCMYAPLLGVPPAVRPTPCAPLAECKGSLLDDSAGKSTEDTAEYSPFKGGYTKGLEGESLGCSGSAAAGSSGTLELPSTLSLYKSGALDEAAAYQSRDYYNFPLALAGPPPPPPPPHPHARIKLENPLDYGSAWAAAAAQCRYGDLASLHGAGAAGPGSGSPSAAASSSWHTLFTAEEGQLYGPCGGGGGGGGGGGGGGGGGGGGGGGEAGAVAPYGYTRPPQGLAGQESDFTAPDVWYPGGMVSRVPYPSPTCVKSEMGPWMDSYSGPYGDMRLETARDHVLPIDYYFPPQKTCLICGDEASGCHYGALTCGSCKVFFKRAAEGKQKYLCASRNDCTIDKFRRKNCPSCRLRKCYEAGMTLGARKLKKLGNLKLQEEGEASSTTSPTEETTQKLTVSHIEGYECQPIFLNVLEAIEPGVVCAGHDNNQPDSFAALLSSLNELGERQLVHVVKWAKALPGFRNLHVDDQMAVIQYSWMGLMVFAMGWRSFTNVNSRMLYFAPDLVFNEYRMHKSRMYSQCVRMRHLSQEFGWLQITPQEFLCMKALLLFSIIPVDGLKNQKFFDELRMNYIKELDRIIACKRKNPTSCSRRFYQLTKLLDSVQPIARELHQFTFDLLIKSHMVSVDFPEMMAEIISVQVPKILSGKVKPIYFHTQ
Protocol: Cell lysates from human embryonic kidney HEK293 cells overexpressing human GR (glucocorticoid receptor), AR (androgen receptor), MR (mineralocorticoid receptor), or PR (progesterone receptor) are used for receptor-ligand competition binding assays to determine Ki values.
Briefly, steroid receptor competition binding assays are run in a buffer containing 20 mM Hepes buffer (pH=7.6), 0.2 mM EDTA, 75 mM NaCl, 1.5 mM MgCl2, 20% glycerol, 20 mM sodium molybdate, 0.2 mM DTT (dithiothreitol), 20 μg/mL aprotinin and 20 μg/mL leupeptin. Typically, steroid receptor binding assays include radio-labeled ligands, such as 0.3 nM [^3H]-dexamethasone for GR binding, 0.36 nM [^3H]-methyltrienolone for AR binding, 0.25 nM [^3H]-aldosterone for MR binding, and 0.29 nM [^3H]-methyltrienolone for PR binding, and either 20 μg 293-GR lysate, 22 μg 293-AR lysate, 20 μg 293-MR lysate or 40 μg 293-PR lysate per well. Assays are typically run in 96-well format. Competing test compounds are added at various concentrations ranging from about 0.01 nM to 10 μM. Non-specific binding is determined in the presence of 500 nM dexamethasone for GR binding, 500 nM aldosterone for MR binding, or 500 nM methyltrienolone for AR and PR binding. […] After an incubation of 2 hours, plates are read in a Wallac Microbeta counter. […]

[2] = Metabolic profiling of plasma after in vivo administration, rat

- Ki ([1]; HEK293 cell lysate expressing human AR, [3H]-methyltrienolone, mean of 5 determinations): 0.0162 µM
- greater affinity for GR relative to AR ([1]; binding selectivity GR vs AR): ≥ 30 fold
- circulating entity in plasma [2]: major circulating entity
SMILES: CC/C(=C1\c2ccc(Cl)cc2OCc2ncccc21)c1cccc(NS(C)(=O)=O)c1 [Compound (I), (E)-N-{3-[1-(8-Chloro-11H-10-oxa-1-aza-dibenzo[a,d]cyclohepten-5-ylidene)-propyl]-phenyl}-methanesulfonamide]
